Assay results as given in patent publication US8173169B2, “Formulation and process for the preparation of modafinil” (Hikma Pharmaceuticals, priority 2007, dated 2012).
Values joined by “and” are separate entries in the source; they are usually repeats but may differ in a detail not shown here. Identical values can stand only once.

Key:
Type in all cases: physicochemical
[1] = Dissolution rates of modafinil prepared by different formulation processes
Excerpt: The choice of excipient is also shown to have a significant influence on the dissolution profiles.

[2] = Sieve analysis of particle size distribution; settings: by weight retained
Excerpt: In using the Coulter Counter, particles suspended in a weak electrolyte solution are drawn through a small aperture, separating two electrodes between which an electric current flows. The voltage applied across the aperture creates a “sensing zone”. As particles pass through the aperture, they displace their own volume of electrolyte, momentarily increasing the impedance of the aperture. This change in impedance produces a pulse that is digitally processed in real time. The Coulter Principle states that the pulse is directly proportional to the tri-dimensional volume of the particle that produced it. […] Sieve sizing is one of the oldest methods used to determine particle size distributions. Samples of known weight are placed on the largest sieve in a stack of sieves of decreasing size. Upon shaking, sample fractions are caught on the respective sieve corresponding to the size of the particles.
Table 2 summarizes particle size distribution of Modafinil of the present invention measured by sieve size analysis.
(§1) Tables 1 and 2 summarize the particle size distribution of modafinil particles B#62605008s obtained by two different sizing methods. Values are reported in microns. The term d (0.1) denotes the diameter of the largest particle found in 10% of the particles sorted in increasing order. The other four terms refer to the diameter of the largest particle found in each 50%, 85%, 90% and 95% of the particles. The term SD denotes the standard deviation and is a measure of the spread of its values and the term RSD refers to the absolute value of the coefficient variation expressed as a percentage. In Table 2 the percentage by weight of particles retained on each mesh cut is reported.

[3] = Particle size analysis by laser diffraction (Malvern Mastersizer 2000)
Excerpt: As is appreciated by those in the art, different measurement instruments may provide different measurements of the same particles. […] Applicants have therefore performed modafinil particle size analysis using a Malvern Mastersizer 2000 (Worcestershire, UK), and a Coulter Counter (Hiac/Royco instruments, USA) and mechanical sieving methods.
Malvern Mastersizer utilizes the principle of laser diffraction particle sizing. The principle involved is that during the laser diffraction measurement, particles are passed through a focused laser beam and these particles scatter light at an angle that is inversely proportional to their size. The angular intensity of the scattered light is then measured by a series of photosensitive detectors and the map of scattering intensity versus angle is the primary source of information used to calculate the particle size.
Particle size measurements using the Hiac/Royco were generated on Modafinil particles of the present invention suspended in saturated water. For Malvern laser sizing, Modafinil particles can either be suspended in sunflower oil or sized in the dry form.
as §1

[4] = single trials 1-3, Malvern Mastersizer 2000

NC(=O)C[S+]([O-])C(c1ccccc1)c1ccccc1 (stereo not shown) [Modafinil particles, Modafinil]
% Modafinil Dissolved ([1]; 5 mins): 1.80%
% Modafinil Dissolved ([1]; 10 mins): 5.19%
% Modafinil Dissolved ([1]; 15 mins): 9.73%
% Modafinil Dissolved ([1]; 20 mins): 14.31%
% Modafinil Dissolved ([1]; 30 mins): 23.19%
% Modafinil Dissolved ([1]; 40 mins): 31.25%
% Modafinil Dissolved ([1]; 60 mins): 44.09%
% Modafinil Dissolved ([1]; 90 mins): 71.42%
dissolution profile compared with PROVIGIL 200 ([1]; result in words): significantly slower

NC(=O)C[S+]([O-])C(c1ccccc1)c1ccccc1 (stereo not shown) [Modafinil B# 62605008s, Modafinil]
% Oversize ([2]; particle size range 0-150 μm): 3.51%
% Oversize ([2]; particle size range 150-180 μm): 1.25%
% Oversize ([2]; particle size range 180-250 μm): 7.02%
% Oversize ([2]; particle size range 250-355 μm): 52.88%
% Oversize ([2]; particle size range 355-425 μm): 17.04%
% Oversize ([2]; particle size range 425-500 μm): 12.78%
% Oversize ([2]; particle size range 500-600 μm): 5.26%
% Oversize ([2]; particle size range 600-800 μm): 0.25%
% Oversize ([2]; particle size range >800 μm): 0.00%
D (0.35) particle size (% undersize) ([3]; average of 3 trials): 267.3 microns
d (0.1) particle size (% undersize) ([3]; average of 3 trials): 161.37 microns
d (0.5) particle size (% undersize) ([3]; average of 3 trials): 322.59 microns
d (0.85) particle size (% undersize) ([3]; average of 3 trials): 506.71 microns
d (0.9) particle size (% undersize) ([3]; average of 3 trials): 557.46 microns
d (0.95) particle size (% undersize) ([3]; average of 3 trials): 631.82 microns
share of particles greater than 220 um ([3]; conclusion from two sizing methods (Tables 1 and 2)): at least 65%
D (0.35) particle size (% undersize) [3, 4]: 273.94 microns and 266.93 microns and 261.04 microns
d (0.1) particle size (% undersize) [3, 4]: 172.45 microns and 159.38 microns and 152.26 microns
d (0.5) particle size (% undersize) [3, 4]: 328.58 microns and 322.53 microns and 316.66 microns
d (0.85) particle size (% undersize) [3, 4]: 510.24 microns and 507.09 microns and 502.79 microns
d (0.9) particle size (% undersize) [3, 4]: 561.92 microns and 558.30 microns and 552.16 microns
d (0.95) particle size (% undersize) [3, 4]: 633.06 microns and 632.46 microns and 629.94 microns
